Experimental data taken from patent US5972894A, “Peptides having potassium channel opener activity” (Cytran, Inc., priority 1997, dated 1999).
Residues, ends and D or L forms follow the SMILES beside them.

What was measured:
Isolated Rat Heart = assay: Inotropic function of normal isolated rat heart, Langendorff perfusion
Excerpt: Rat heart specimens were obtained surgically from white random-bred male rats weighing approximately 250 g. The hearts were established in culture using retrograde heart perfusion according to the Langendorff method performed with a standard oxygenated (95% O2 and 5% CO2) Krebs-Henseleit solution through a glass aorta cannula. The retroperfusion pressure forces the aortic valves shut. In this way, the oxygenated solution passed only through the coronary vasculature of the heart such that both ventricles remain effectively empty. Perfusion conditions: An average constant perfusate flow rate of 15 to 25 ml/min was maintained with a constant perfusate pressure of 80 cm H2 O. Pressure Measurements: A latex balloon catheter connected with a pressure transducer ([…], Sweden) was inserted into the left ventricle of the heart to measure parameters of the inotropic function of the heart. The intraventricle pressure variation curve for the left ventricle was recorded with a polygraph. Experimental Protocol: GE and VT served as the test substances. After a 30-minute adaptation of the heart to the organ culture perfusion conditions, a set of basal (control) measurements was taken, as described in (i) through (v) below. […] See GOODMAN […] THE PHARMACOLOGICAL BASIS OF THERAPEUTICS 160 (Goodman et al., eds., 7th ed. 1985), incorporated herein by reference in its entirety for all purposes. Each dose of each respective test or reference substance was tested on four different rat hearts. The inotropic functions of each of the four rat hearts were evaluated by measuring: (i) the systolic pressure in the left ventricle ([…] diastolic pressure in the left ventricle ([…] evolving pressure (Pev. =[…]); (iv) the maximal rate of increase of left ventricle pressure (+dp/dtmax mm Hg/sec); and (v) the maximal rate of decrease of left ventricle pressure (-dp/dtmax mm Hg/sec). In addition, the heart rate (HR) of each heart was determined from the pressure variation recordings made of the left ventricle pressure.

rats = assay: Arterial blood pressure in anesthetized rats; format: in vivo
Protocol: White random-bred male rats weighing approximately 200 g were employed for this study. Each dose of each respective test or control substance was administered to a group of five rats. GE and VT were employed as test substances and were administered intravenously at doses of 0.01, 0.1, 1.0, and 10.0 mg/kg. Physiological saline (0.2 ml) served as the negative control substance. The ganglionic blocking agent, pentamine, served as the positive control substance and was tested at a dose of 5 mg/kg. Following administration of the test substance, positive control substance, or negative control substance, the arterial blood pressure of each animal was monitored.
Prior to administration of the test or control substance, each animal was anesthetized with Chloralose and then both its carotid artery and jugular vein were catheterized. The carotid catheter was connected to an electronic manometer attached to a computer recorder through an analog-to-digital converter. The mean basal level of the arterial blood pressure was determined as follows: For a period of 30 seconds, the digital signal pertaining to the arterial blood pressure was recorded at 1-second intervals. The mean value of these thirty individual measurements was then determined and recorded.
After determining the mean basal level of the arterial blood pressure, a particular dose of the test or control substance was administered in a volume of 0.2 ml of physiological saline to an animal through the jugular venous catheter. Measurements of the arterial blood pressure were then taken during the next 1.5 hours as follows: (i) during the first 5 minutes, the arterial blood pressure was being monitored continuously and mean values were calculated electronically and recorded at each of the ten different 30-second intervals (i.e., 30th second, 60th second, etc.); (ii) thereafter, mean values of the arterial blood pressure were calculated at the first seconds of 10th minute, 15th minute, 30th minute, 45th minute, 60th minute, 75th minute, and 90th minute after administration of the respective test or control substance.

## NCC(=O)N[C@@H](CCC(=O)O)C(=O)O [GE, L-Glycyl-L-Glutamic acid] (H-Gly-Glu-OH)
Isolated Rat Heart; 10, 100, 1000 μg
  effect on inotropic function and heart rate of normal heart: neither GE nor VT had a significant effect
Isolated Rat Heart; dose 10 mg (mg = microgram)
  +dp/dtmax % of Basal Level: 102%
  +dp/dtmax Subst. Level: 1750 mm Hg/sec
  -dp/dtmax % of Basal Level: 94%
  -dp/dtmax Subst. Level: 985 mm Hg/sec
  HR % of Basal Level: 99%
  HR abs, Subst. Level: 202 hb/min
  Pdiast % of Basal Level: 95%
  Pdiast abs, Subst. Level: 9 mm Hg
  Pev % of Basal Level: 102%
  Pev Subst. Level: 94 mm Hg
  Psyst % of Basal Level: 102%
  Psyst abs, Subst. Level: 104 mm Hg
Isolated Rat Heart; dose 100 mg (mg = microgram)
  +dp/dtmax % of Basal Level: 100%
  +dp/dtmax Subst. Level: 1723 mm Hg/sec
  -dp/dtmax % of Basal Level: 99%
  -dp/dtmax Subst. Level: 1055 mm Hg/sec
  HR % of Basal Level: 100%
  HR abs, Subst. Level: 203 hb/min
  Pdiast % of Basal Level: 100%
  Pdiast abs, Subst. Level: 11 mm Hg
  Pev % of Basal Level: 99%
  Pev Subst. Level: 88 mm Hg
  Psyst % of Basal Level: 99%
  Psyst abs, Subst. Level: 99 mm Hg
Isolated Rat Heart; dose 1000 mg (mg = microgram)
  +dp/dtmax % of Basal Level: 94%
  +dp/dtmax Subst. Level: 1618 mm Hg/sec
  -dp/dtmax % of Basal Level: 96%
  -dp/dtmax Subst. Level: 980 mm Hg/sec
  HR % of Basal Level: 102%
  HR abs, Subst. Level: 198 hb/min
  Pdiast % of Basal Level: 100%
  Pdiast abs, Subst. Level: 10 mm Hg
  Pev % of Basal Level: 91%
  Pev Subst. Level: 85 mm Hg
  Psyst % of Basal Level: 92%
  Psyst abs, Subst. Level: 94 mm Hg
rats; 0.01 mg/kg i.v., 1 min
  Arterial Blood Pressure (Basal Level = 100.00): 101.02%
rats; 0.01 mg/kg i.v., 2 min
  Arterial Blood Pressure (Basal Level = 100.00): 102.72%
rats; 0.01 mg/kg i.v., 3 min
  Arterial Blood Pressure (Basal Level = 100.00): 103.88%
rats; 0.01 mg/kg i.v., 4 min
  Arterial Blood Pressure (Basal Level = 100.00): 99.77%
rats; 0.01 mg/kg i.v., 5 min
  Arterial Blood Pressure (Basal Level = 100.00): 102.90%
rats; 0.01 mg/kg i.v., 10 min
  Arterial Blood Pressure (Basal Level = 100.00): 96.17%
rats; 0.01 mg/kg i.v., 15 min
  Arterial Blood Pressure (Basal Level = 100.00): 97.01%
rats; 0.01 mg/kg i.v., 30 min
  Arterial Blood Pressure (Basal Level = 100.00): 98.26%
rats; 0.01 mg/kg i.v., 45 min
  Arterial Blood Pressure (Basal Level = 100.00): 99.01%
rats; 0.01 mg/kg i.v., 60 min
  Arterial Blood Pressure (Basal Level = 100.00): 93.29%
rats; 0.01 mg/kg i.v., 75 min
  Arterial Blood Pressure (Basal Level = 100.00): 94.15%
rats; 0.01 mg/kg i.v., 90 min
  Arterial Blood Pressure (Basal Level = 100.00): 102.09%
rats; 0.1 mg/kg i.v., 1 min
  Arterial Blood Pressure (Basal Level = 100.00): 96.00%
rats; 0.1 mg/kg i.v., 2 min
  Arterial Blood Pressure (Basal Level = 100.00): 96.60%
rats; 0.1 mg/kg i.v., 3 min
  Arterial Blood Pressure (Basal Level = 100.00): 97.66%
rats; 0.1 mg/kg i.v., 4 min
  Arterial Blood Pressure (Basal Level = 100.00): 97.32%
rats; 0.1 mg/kg i.v., 5 min
  Arterial Blood Pressure (Basal Level = 100.00): 98.31%
rats; 0.1 mg/kg i.v., 10 min
  Arterial Blood Pressure (Basal Level = 100.00): 96.04%
rats; 0.1 mg/kg i.v., 15 min
  Arterial Blood Pressure (Basal Level = 100.00): 94.98%
rats; 0.1 mg/kg i.v., 30 min
  Arterial Blood Pressure (Basal Level = 100.00): 93.56%
rats; 0.1 mg/kg i.v., 45 min
  Arterial Blood Pressure (Basal Level = 100.00): 80.15%
rats; 0.1 mg/kg i.v., 60 min
  Arterial Blood Pressure (Basal Level = 100.00): 83.03%
rats; 0.1 mg/kg i.v., 75 min
  Arterial Blood Pressure (Basal Level = 100.00): 83.37%
rats; 0.1 mg/kg i.v., 90 min
  Arterial Blood Pressure (Basal Level = 100.00): 84.50%
rats; 1.0 mg/kg i.v., 1 min
  Arterial Blood Pressure (Basal Level = 100.00): 70.32%
rats; 1.0 mg/kg i.v., 2 min
  Arterial Blood Pressure (Basal Level = 100.00): 84.63%
rats; 1.0 mg/kg i.v., 3 min
  Arterial Blood Pressure (Basal Level = 100.00): 90.73%
rats; 1.0 mg/kg i.v., 4 min
  Arterial Blood Pressure (Basal Level = 100.00): 93.72%
rats; 1.0 mg/kg i.v., 5 min
  Arterial Blood Pressure (Basal Level = 100.00): 98.11%
rats; 1.0 mg/kg i.v., 10 min
  Arterial Blood Pressure (Basal Level = 100.00): 94.67%
rats; 1.0 mg/kg i.v., 15 min
  Arterial Blood Pressure (Basal Level = 100.00): 92.70%
rats; 1.0 mg/kg i.v., 30 min
  Arterial Blood Pressure (Basal Level = 100.00): 90.58%
rats; 1.0 mg/kg i.v., 45 min
  Arterial Blood Pressure (Basal Level = 100.00): 88.43%
rats; 1.0 mg/kg i.v., 60 min
  Arterial Blood Pressure (Basal Level = 100.00): 88.85%
rats; 1.0 mg/kg i.v., 75 min
  Arterial Blood Pressure (Basal Level = 100.00): 90.07%
rats; 1.0 mg/kg i.v., 90 min
  Arterial Blood Pressure (Basal Level = 100.00): 89.82%
rats; 10.0 mg/kg i.v., 1 min
  Arterial Blood Pressure (Basal Level = 100.00): 94.68%
rats; 10.0 mg/kg i.v., 2 min
  Arterial Blood Pressure (Basal Level = 100.00): 100.17%
rats; 10.0 mg/kg i.v., 3 min
  Arterial Blood Pressure (Basal Level = 100.00): 101.63%
rats; 10.0 mg/kg i.v., 4 min
  Arterial Blood Pressure (Basal Level = 100.00): 101.22%
rats; 10.0 mg/kg i.v., 5 min
  Arterial Blood Pressure (Basal Level = 100.00): 100.20%
rats; 10.0 mg/kg i.v., 10 min
  Arterial Blood Pressure (Basal Level = 100.00): 95.61%
rats; 10.0 mg/kg i.v., 15 min
  Arterial Blood Pressure (Basal Level = 100.00): 91.27%
rats; 10.0 mg/kg i.v., 30 min
  Arterial Blood Pressure (Basal Level = 100.00): 88.24%
rats; 10.0 mg/kg i.v., 45 min
  Arterial Blood Pressure (Basal Level = 100.00): 89.56%
rats; 10.0 mg/kg i.v., 60 min
  Arterial Blood Pressure (Basal Level = 100.00): 85.99%
rats; 10.0 mg/kg i.v., 75 min
  Arterial Blood Pressure (Basal Level = 100.00): 87.12%
rats; 10.0 mg/kg i.v., 90 min
  Arterial Blood Pressure (Basal Level = 100.00): 78.69%
rats; after about 60 to 90 minutes
  effect on mean arterial blood pressure: moderate, but delayed, decrease in the mean arterial blood pressure
